Measured values taken from patent EP4800012A1, “COMPOUND ACTING AS PARP7 INHIBITOR” (Dovetree Medicines Unus, Inc., priority 2023, dated 2025).
Like-named read-outs stand apart in the source and are kept apart here.

How the values were obtained:
[1] = molecular target: T1, PARP7 (Homo sapiens, UniProt Q7Z3E1); test: Inhibition of the compound on PARP7 protein activity (ADP-ribosylation, chemiluminescence); format: biochemical
T1 construct: purchased BPS 80527
T1 sequence (Q7Z3E1 1-657): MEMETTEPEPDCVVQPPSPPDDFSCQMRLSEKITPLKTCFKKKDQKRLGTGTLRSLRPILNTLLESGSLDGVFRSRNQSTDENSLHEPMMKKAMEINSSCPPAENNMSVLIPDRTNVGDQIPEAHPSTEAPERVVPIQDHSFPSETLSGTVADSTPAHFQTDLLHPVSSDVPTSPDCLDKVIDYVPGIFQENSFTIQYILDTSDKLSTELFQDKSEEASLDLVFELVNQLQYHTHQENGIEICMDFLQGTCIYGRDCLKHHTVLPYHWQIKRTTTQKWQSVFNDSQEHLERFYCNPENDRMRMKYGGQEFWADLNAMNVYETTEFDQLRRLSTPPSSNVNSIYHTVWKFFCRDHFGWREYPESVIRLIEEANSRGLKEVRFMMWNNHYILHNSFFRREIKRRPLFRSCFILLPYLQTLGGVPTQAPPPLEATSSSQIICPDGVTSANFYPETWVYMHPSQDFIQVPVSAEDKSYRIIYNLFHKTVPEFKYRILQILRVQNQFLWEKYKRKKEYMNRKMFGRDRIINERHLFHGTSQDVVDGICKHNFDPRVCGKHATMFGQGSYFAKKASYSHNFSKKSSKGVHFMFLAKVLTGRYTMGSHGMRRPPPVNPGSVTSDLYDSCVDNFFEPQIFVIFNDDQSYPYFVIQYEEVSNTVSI

[2] = tested on: NCI-H1373 cells; test: Inhibition on NCI-H1373 cell proliferation (Cell-Titer-Glo); format: cell-based; details: Homo sapiens, 144 h; NCI-H1373 cells, incubation for 6 days, Cell-Titer-Glo; read-out: NCI-H1373 cell proliferation inhibition IC50
[3] = molecular target: T1, PARP7; test: PARP7 TR-FRET binding inhibition (displacement of probe RBN011147)
Experimental: The ability of the compound to substitute the probe RBN011147 (Wigle et al., 2020, Cell Chemical Biology 27, 877-887) was tested by a TR-FRET method, and IC50 was calculated to evaluate the binding ability of the compound to PARP7. […]

[4] = molecular target: PARP1 (Homo sapiens, UniProt P09874); test: PARP1 in vitro enzyme activity inhibition (chemiluminescence assay); format: biochemical
Sequence of PARP1 (P09874 whole entry, species assumed): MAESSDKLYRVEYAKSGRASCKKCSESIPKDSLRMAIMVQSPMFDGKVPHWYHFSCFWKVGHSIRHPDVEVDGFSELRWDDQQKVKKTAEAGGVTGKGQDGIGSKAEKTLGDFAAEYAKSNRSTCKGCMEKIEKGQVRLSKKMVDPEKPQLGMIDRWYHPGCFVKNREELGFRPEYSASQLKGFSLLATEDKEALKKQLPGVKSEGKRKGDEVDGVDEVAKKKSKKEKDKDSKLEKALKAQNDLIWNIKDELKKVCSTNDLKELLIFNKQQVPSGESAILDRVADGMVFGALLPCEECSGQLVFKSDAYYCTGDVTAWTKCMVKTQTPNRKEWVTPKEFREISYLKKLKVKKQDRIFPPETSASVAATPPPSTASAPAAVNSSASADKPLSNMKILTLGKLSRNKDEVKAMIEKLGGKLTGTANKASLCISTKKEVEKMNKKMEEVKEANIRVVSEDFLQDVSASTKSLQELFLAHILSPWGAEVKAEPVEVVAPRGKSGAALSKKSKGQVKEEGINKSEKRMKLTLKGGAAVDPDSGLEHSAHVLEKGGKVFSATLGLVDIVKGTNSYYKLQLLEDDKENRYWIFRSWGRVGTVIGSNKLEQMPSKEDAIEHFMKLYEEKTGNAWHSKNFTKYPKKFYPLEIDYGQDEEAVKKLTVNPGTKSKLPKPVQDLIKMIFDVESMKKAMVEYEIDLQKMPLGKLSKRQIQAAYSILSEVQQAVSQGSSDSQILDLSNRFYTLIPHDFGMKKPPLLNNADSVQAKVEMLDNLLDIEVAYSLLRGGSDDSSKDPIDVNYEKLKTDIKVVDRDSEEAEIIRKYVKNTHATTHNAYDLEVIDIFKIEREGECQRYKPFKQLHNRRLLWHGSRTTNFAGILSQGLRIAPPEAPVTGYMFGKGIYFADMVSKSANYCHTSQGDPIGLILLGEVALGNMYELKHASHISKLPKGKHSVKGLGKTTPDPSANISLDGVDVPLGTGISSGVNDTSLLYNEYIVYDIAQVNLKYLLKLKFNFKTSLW
Experimental: (§1) Following the method in test example 1, the IC50 value of the inhibition of each compound on PARP7 activity were detected and obtained. Reference was made to the method in test example 1, except that the 6.25 nM of PARP7 solution in the ribosylation reaction step was replaced with a 5 nM of PARP1 solution or a 5 nM of PARP2. Similar to the 6.25 nM of PARP7 solution, the 5 nM of PARP1 solution and 5 nM of PARP2 solution were also formulated and obtained by using 1× Assay buffer.

[5] = molecular target: PARP2 (Homo sapiens, UniProt Q9UGN5); test: PARP2 in vitro enzyme activity inhibition (chemiluminescence assay); format: biochemical
Sequence of PARP2 (Q9UGN5 whole entry, species assumed): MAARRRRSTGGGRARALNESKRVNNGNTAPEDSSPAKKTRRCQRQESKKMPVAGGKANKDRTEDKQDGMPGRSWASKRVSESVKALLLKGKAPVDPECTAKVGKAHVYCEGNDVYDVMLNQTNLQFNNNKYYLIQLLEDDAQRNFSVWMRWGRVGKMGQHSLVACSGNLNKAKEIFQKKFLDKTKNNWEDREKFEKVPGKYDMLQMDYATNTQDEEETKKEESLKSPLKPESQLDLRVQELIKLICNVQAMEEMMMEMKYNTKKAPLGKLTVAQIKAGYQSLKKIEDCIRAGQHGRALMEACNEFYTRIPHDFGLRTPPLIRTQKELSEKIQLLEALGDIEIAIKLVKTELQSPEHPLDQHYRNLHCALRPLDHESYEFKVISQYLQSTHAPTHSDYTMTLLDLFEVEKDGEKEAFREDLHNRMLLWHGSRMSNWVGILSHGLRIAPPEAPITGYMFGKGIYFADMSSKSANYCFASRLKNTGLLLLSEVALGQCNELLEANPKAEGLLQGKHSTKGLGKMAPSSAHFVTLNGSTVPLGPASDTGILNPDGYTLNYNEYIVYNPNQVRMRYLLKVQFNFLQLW
Experimental: as §1

[6] = molecular target: T1, PARP7; test: PARP7 in vitro enzyme activity inhibition (chemiluminescence assay, selectivity test); format: biochemical
Experimental: as §1

[7] = Histone H1 coated plate, Biotin-Labeled NAD+, 2 h at room temperature, chemiluminescence; read-out: PARP7 activity inhibition IC50
[8] = TR-FRET, Biotin-labeled probe RBN011147; read-out: PARP7 binding inhibition IC50
[9] = 5 nM of PARP1 solution, method of test example 1; read-out: PARP1 activity inhibition IC50
[10] = 5 nM of PARP2, method of test example 1; read-out: PARP2 activity inhibition IC50
[11] = 6.25 nM of PARP7 solution, method of test example 1; read-out: PARP7 activity inhibition IC50
[12] = read-out: PARP7 activity inhibition IC50; Histone H1 coated plate, Biotin-Labeled NAD+, 2 h at room temperature, chemiluminescence
[13] = read-out: PARP7 binding inhibition IC50; TR-FRET, Biotin-labeled probe RBN011147

| Structure (SMILES) | IC50 [1, 7] | IC50 [2] | IC50 [3, 8] | IC50 [4, 9] | IC50 [5, 10] | IC50 [6, 11] | IC50 [1, 12] | IC50 [3, 13] | IC50 ([4]; read-out: PARP1 activity inhibition IC50; 5 nM of PARP1 solution, method of test example 1) | IC50 ([5]; read-out: PARP2 activity inhibition IC50; 5 nM of PARP2, method of test example 1) | IC50 ([6]; read-out: PARP7 activity inhibition IC50; 6.25 nM of PARP7 solution, method of test example 1) |
| --- | --- | --- | --- | --- | --- | --- | --- | --- | --- | --- | --- |
| CC(CCCNC(=O)c1cnc(-c2ncc(C(F)(F)F)cn2)cn1)Nc1cn[nH]c(=O)c1C(F)(F)F (stereo not drawn) [Example 4] | < 3 nM | 300 to 1000 nM | < 10 nM | 30 to 100 nM | 3 to 10 nM | < 3 nM | – | – | – | – | – |
| Cc1c(CCC(=O)Nc2ccc(-c3ncc(C(F)(F)F)cn3)cc2)c[nH]c(=O)c1C(F)(F)F [Example 10] | < 3 nM | 1000 to 3000 nM | < 10 nM | 3 to 10 nM | 3 to 10 nM | < 3 nM | – | – | – | – | – |
| CC(CCCNC(=O)c1ccc(-c2ncc(C(F)(F)F)s2)cc1)Nc1cn[nH]c(=O)c1C(F)(F)F (stereo not drawn) [Example 17] | < 3 nM | < 300 nM | < 10 nM | 10 to 30 nM | < 3 nM | < 3 nM | – | – | – | – | – |
| O=C(CCc1c[nH]c(=O)c(C(F)(F)F)c1N1CC2(CCC2)C1)Nc1ccc(-c2ncc(C(F)(F)F)s2)cn1 [Example 69] | < 3 nM | > 3000 nM | < 10 nM | > 100 nM | > 100 nM | < 3 nM | – | – | – | – | – |
| O=C(CCc1c[nH]c(=O)c(C(F)(F)F)c1N1CC2(CCC2)C1)Nc1ccc(-c2ncc(C(F)(F)F)cn2)cn1 [Example 70] | – | > 3000 nM | – | – | – | – | 3 to 10 nM | < 10 nM | > 100 nM | > 100 nM | 3 to 10 nM |
| CC(CCCNC(=O)c1ccc(-c2nc(C(F)(F)F)no2)cc1)Nc1cn[nH]c(=O)c1C(F)(F)F (stereo not drawn) [Example 78] | 3 to 10 nM | > 3000 nM | 10 to 30 nM | – | – | – | – | – | – | – | – |
| CC(CCCNC(=O)c1ccc(-c2cc(C(F)(F)F)on2)cc1)Nc1cn[nH]c(=O)c1C(F)(F)F (stereo not drawn) [Example 79] | 3 to 10 nM | > 3000 nM | < 10 nM | – | – | – | – | – | – | – | – |
| CC(CCCNC(=O)c1ccc(-c2csc(C(F)(F)F)n2)cc1)Nc1cn[nH]c(=O)c1C(F)(F)F (stereo not drawn) [Example 80] | 10 to 30 nM | > 3000 nM | 30 to 100 nM | – | – | – | – | – | – | – | – |
| CC(CCCNC(=O)c1ccc(-c2nc(C(F)(F)F)cs2)cc1)Nc1cn[nH]c(=O)c1C(F)(F)F (stereo not drawn) [Example 81] | 30 to 100 nM | > 3000 nM | 30 to 100 nM | – | – | – | – | – | – | – | – |
| CC(CCCNC(=O)c1ccc(-c2nnc(C(F)(F)F)s2)cc1)Nc1cn[nH]c(=O)c1C(F)(F)F (stereo not drawn) [Example 82] | 3 to 10 nM | > 3000 nM | 30 to 100 nM | – | – | – | – | – | – | – | – |
| O=C(NCCCC(Nc1cn[nH]c(=O)c1C(F)(F)F)C(=O)N1CCCC1)c1ccc(-c2ncc(C(F)(F)F)cn2)cc1 (stereo not drawn) [Example 84] | < 3 nM | 300 to 1000 nM | 10 to 30 nM | > 100 nM | 10 to 30 nM | < 3 nM | – | – | – | – | – |
| CC1(C)CN(C(=O)C(CCCNC(=O)c2ccc(-c3ncc(C(F)(F)F)s3)cc2)Nc2cn[nH]c(=O)c2C(F)(F)F)C1 (stereo not drawn) [Example 85] | < 3 nM | 300 to 1000 nM | < 10 nM | 30 to 100 nM | 3 to 10 nM | < 3 nM | – | – | – | – | – |
| CC(CCCNC(=O)c1ncc(-c2ncc(C(F)(F)F)cn2)s1)Nc1cn[nH]c(=O)c1C(F)(F)F (stereo not drawn) [Example 151] | 3 to 10 nM | > 3000 nM | 30 to 100 nM | – | – | – | – | – | – | – | – |
| CC(CCCNC(=O)c1ccc(-c2ncc(C3CCCC3)s2)cc1)Nc1cn[nH]c(=O)c1C(F)(F)F (stereo not drawn) [Example 155] | < 3 nM | 1000 to 3000 nM | 10 to 30 nM | – | – | – | – | – | – | – | – |
| O=C(NCCC[C@H]1CCN1c1cn[nH]c(=O)c1C(F)(F)F)c1cnc(-c2ncc(C(F)(F)F)cn2)cn1 [Example 164] | – | > 3000 nM | – | – | – | – | > 100 nM | > 100 nM | – | – | – |
| CC(CCCNC(=O)c1cnc(-n2cc(C(F)(F)F)cn2)cn1)Nc1cn[nH]c(=O)c1C(F)(F)F (stereo not drawn) [Example 175] | < 3 nM | 300 to 1000 nM | 10 to 30 nM | – | – | – | – | – | – | – | – |
| CC(CCCNC(=O)c1ccc(-n2cc(C(F)(F)F)cn2)cc1F)Nc1cn[nH]c(=O)c1C(F)(F)F (stereo not drawn) [Example 176] | < 3 nM | < 300 nM | < 10 nM | – | – | – | – | – | – | – | – |
